± gives the standard deviation of the reports.
What was measured:
[1] = not given; remark: listed apart in the source
[2] = not given; remark: listed apart in the source
[3] = not given; remark: listed apart in the source
[4] = not given; remark: listed apart in the source

| SMILES | glass transition temperature [1] | glass transition temperature [3] | other results |
| --- | --- | --- | --- |
| *CC(*)OCCC (repeat unit) [Poly(propyl vinyl ether)] | – | – | glass transition temperature: -49 °C |
| *c1cc(CCCCCCCCCCCCCC)c(-c2sc(-c3cc4sc(*)cc4s3)cc2CCCCCCCCCCCCCC)s1 (repeat unit) | 5.00 °C | – | – |
| *c1cc2c(OCC(CC)CCCC)c3sc(-c4sc(*)c5c(F)c(C(=O)OCC(CC)CCCC)sc45)cc3c(OCC(CC)CCCC)c2s1 (repeat unit) | 40.00 °C | – | – |
| *c1ccc2c(c1)C(CCCCCCCCCCCC)(CCCCCCCCCCCC)c1cc(*)ccc1-2 (repeat unit) | 16.00 °C | – | – |
| *c1ccc(-c2ccc(OCCCCCCCC)c(-c3cc(*)ccc3OCCCCCCCC)c2)cc1 (repeat unit) | 87.00 °C | – | – |
| *c1ccc(-c2ccc(-c3cc4c5c(c(*)cc6c5c3C(=O)N(CC(CCCCCCCC)CCCCCCCCCC)C6=O)C(=O)N(CC(CCCCCCCC)CCCCCCCCCC)C4=O)s2)s1 (repeat unit) | 74.00 °C | – | – |
| *CC(*)C(=O)OC(C)CCCCC (repeat unit) [Poly(2-heptyl acrylate) ] | – | – | glass transition temperature [2]: -39 ± 1.4 °C |
| *C=Cc1cc(OC)c(C=Cc2cc(OC)c(*)cc2OC)cc1OCC(CC)CCCC (repeat unit) | 113.00 °C | – | – |
| *CC(*)c1ccc(CO)cc1 (repeat unit) [Poly(p-hydroxymethyl styrene) ] | – | – | glass transition temperature [2]: 139 ± 1.4 °C |
| *c1ccc(-c2ccc(OCCCCCC)c(-c3cc(*)ccc3OCCCCCC)c2)cc1 (repeat unit) | 117.00 °C | – | – |
| *c1ccc2c(c1)C(CCCCCCCC)(CCCCCCCC)c1cc(-c3sc(-c4ccc(-c5cc(CCCCCC)c(*)s5)c5nsnc45)cc3CCCCCC)ccc1-2 (repeat unit) | 79.00 °C | – | – |
| *c1ccc(-c2sc(-c3c(F)c(F)c(-c4cc(CC(CCCCCCCC)CCCCCCCCCC)c(-c5ccc(*)s5)s4)c4nsnc34)cc2CC(CCCCCCCC)CCCCCCCCCC)s1 (repeat unit) | 28.00 °C | – | – |
| *c1ccc(N(c2ccc(-c3ccc4c(c3)C(CCCCCCCC)(CCCCCCCC)c3cc(*)ccc3-4)cc2)c2ccc(C(C)CC)cc2)cc1 (repeat unit) | 140.00 °C | – | – |
| *Sc1cccc2c1C(=O)N(c1ccc(Oc3ccc(Oc4ccc(N5C(=O)c6cccc(*)c6C5=O)cc4)cc3)cc1)C2=O (repeat unit) | – | 250.00 °C | – |
| *Oc1cccc(C(C)(C)c2ccc(Oc3cccc4c3C(=O)N(c3ccc(Oc5cccc(Oc6ccc(N7C(=O)c8cccc(*)c8C7=O)cc6)c5)cc3)C4=O)cc2)c1 (repeat unit) | – | 202.00 °C | – |
| *c1ccc2c(c1)C(=O)N(c1cc(N3C(=O)c4ccc(S(*)(=O)=O)cc4C3=O)cc(C(F)(F)F)c1)C2=O (repeat unit) | – | 310.00 °C | – |
| *Oc1ccc(Oc2ccc(Oc3ccc4c(c3)C(=O)N(CCCCCCN3C(=O)c5ccc(*)cc5C3=O)C4=O)cc2)cc1 (repeat unit) [Polyetherimide 1 ] | – | – | glass transition temperature [2]: 126.4 ± 2.1 °C |

| SMILES | glass transition temperature [1] | glass transition temperature [3] | other results |
| --- | --- | --- | --- |
| *c1cccc(Oc2ccc(P(=O)(c3ccccc3)c3ccc(Oc4ccc(N5C(=O)c6ccc(-c7ccc8c(c7)C(=O)N(*)C8=O)cc6C5=O)cc4)cc3)cc2)c1 (repeat unit) | – | 241.00 °C | – |
| *Oc1cccc(C(C)(C)c2ccc(Oc3cccc4c3C(=O)N(c3ccc(Oc5ccc(N6C(=O)c7cccc(*)c7C6=O)cc5)cc3)C4=O)cc2)c1 (repeat unit) | – | 235.00 °C | – |
| *CC(*)(C)C(=O)OCC(CC)CC (repeat unit) [Poly(2-ethylbutyl methacrylate) ] | – | – | glass transition temperature [2]: 10.4 ± 0.7 °C |
| *Oc1cccc(C(C)(C)c2ccc(Oc3ccc4c(c3)C(=O)N(c3ccc(Oc5cccc(Oc6ccc(N7C(=O)c8ccc(*)cc8C7=O)cc6)c5)cc3)C4=O)cc2)c1 (repeat unit) | – | 178.00 °C | – |
| *c1ccc(Oc2ccc(C(C)(C)c3ccc(Oc4ccc(-n5c(=O)c6cc7c(=O)n(*)c(=O)c7cc6c5=O)cc4)cc3)cc2)cc1 (repeat unit) | – | 283.00 °C | – |
| *c1nc(C(F)(F)F)nc(C(F)(OC(F)(F)C(F)(F)C(F)(F)C(F)(F)C(F)(F)C(F)(F)OC(*)(F)C(F)(F)F)C(F)(F)F)n1 (repeat unit) [Perfluoropolymer 1] | – | – | glass transition temperature [2]: -13.6 ± 0.7 °C |
| *c1cccc2c1C(=O)N(c1ccc(C3(c4ccc(N5C(=O)c6cccc(*)c6C5=O)c(C)c4)c4ccccc4-c4ccccc43)cc1C)C2=O (repeat unit) | – | 313.00 ± 2.8 °C | – |
| *Oc1cccc(C(=O)c2ccc(Oc3cccc4c3C(=O)N(c3ccc(Oc5ccc(N6C(=O)c7cccc(*)c7C6=O)cc5)cc3)C4=O)cc2)c1 (repeat unit) | – | 252.00 °C | – |
| *CC(*)OC(=O)C=Cc1ccccc1 (repeat unit) [poly(vinyl cinnamate)] | – | – | glass transition temperature [4]: 77 °C |
| *Oc1ccc(Sc2ccc(Oc3ccc4c(c3)C(=O)N(c3cc(N5C(=O)c6ccc(*)cc6C5=O)cc(C(F)(F)F)c3)C4=O)cc2)cc1 (repeat unit) | – | 218.00 °C | – |
| *Sc1ccc2c(c1)C(=O)N(c1ccc(Oc3ccc4ccccc4c3-c3c(Oc4ccc(N5C(=O)c6ccc(*)cc6C5=O)cc4C(F)(F)F)ccc4ccccc34)c(C(F)(F)F)c1)C2=O (repeat unit) | – | 273.00 °C | – |
| *Oc1cccc(Oc2ccc(Oc3ccc4c(c3)C(=O)N(c3cccc(N5C(=O)c6ccc(*)cc6C5=O)c3)C4=O)cc2)c1 (repeat unit) | – | 227.00 °C | – |
| *Oc1cccc2c1C(=O)N(c1cccc(C(=O)c3cccc(N4C(=O)c5cccc(*)c5C4=O)c3)c1)C2=O (repeat unit) | – | 234.00 °C | – |
| *c1cc(N2C(=O)c3ccc(-c4ccc5c(c4)C(=O)N(*)C5=O)cc3C2=O)ccc1OCC(F)(F)C(F)(F)C(F)(F)C(F)(F)C(F)(F)C(F)(F)C(F)(F)F (repeat unit) | – | 250.00 °C | – |
| *CC(*)OC(=O)CCC (repeat unit) [Poly(vinyl butyrate) ] | – | – | glass transition temperature [2]: 2 ± 4.2 °C |
| *CC(*)c1ccccc1CC (repeat unit) [Poly(o-ethyl styrene) ] | – | – | glass transition temperature [2]: 102 ± 1.4 °C |
